In BindingDB's records for doi:10.1016/s0024-3205(97)00885-0 (Eli Lilly, 1997):

Legend:
[1] = biological target: Histamine H1 receptor (Rattus norvegicus, UniProt P31390)
[2] = biological target: T1, Muscarinic acetylcholine receptor M2 (Rattus norvegicus, UniProt P10980)
T1 sequence (P10980 whole entry): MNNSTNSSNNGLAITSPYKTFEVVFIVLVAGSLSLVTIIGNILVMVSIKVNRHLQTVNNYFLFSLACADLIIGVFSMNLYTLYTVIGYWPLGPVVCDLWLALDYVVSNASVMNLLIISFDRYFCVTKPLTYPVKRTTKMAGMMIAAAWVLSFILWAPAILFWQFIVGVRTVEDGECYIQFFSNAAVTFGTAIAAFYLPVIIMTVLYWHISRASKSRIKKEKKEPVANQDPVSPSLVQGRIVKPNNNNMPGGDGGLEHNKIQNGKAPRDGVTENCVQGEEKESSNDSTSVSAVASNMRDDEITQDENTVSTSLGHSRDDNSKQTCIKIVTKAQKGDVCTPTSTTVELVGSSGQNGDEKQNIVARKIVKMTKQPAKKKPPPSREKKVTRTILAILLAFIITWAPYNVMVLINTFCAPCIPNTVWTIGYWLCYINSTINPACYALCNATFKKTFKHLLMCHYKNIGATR

[3] = biological target: T2, Alpha-1A adrenergic receptor (Rattus norvegicus, UniProt P43140)
T2 sequence (P43140 whole entry): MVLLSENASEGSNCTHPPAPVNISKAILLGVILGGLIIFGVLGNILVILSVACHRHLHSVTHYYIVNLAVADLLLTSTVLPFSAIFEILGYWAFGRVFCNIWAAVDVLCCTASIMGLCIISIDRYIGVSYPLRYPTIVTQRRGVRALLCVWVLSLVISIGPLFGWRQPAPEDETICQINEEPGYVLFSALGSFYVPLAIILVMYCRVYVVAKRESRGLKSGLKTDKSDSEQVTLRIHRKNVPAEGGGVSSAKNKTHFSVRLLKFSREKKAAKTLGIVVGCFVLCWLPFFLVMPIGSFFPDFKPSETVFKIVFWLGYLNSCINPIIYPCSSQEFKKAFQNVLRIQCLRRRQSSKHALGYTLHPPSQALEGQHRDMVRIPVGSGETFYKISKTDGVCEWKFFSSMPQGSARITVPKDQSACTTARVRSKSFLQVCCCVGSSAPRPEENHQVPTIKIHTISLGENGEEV

[4] = biological target: T3, 5-hydroxytryptamine receptor 1F (Homo sapiens, UniProt P30939)
T3 sequence (P30939 whole entry): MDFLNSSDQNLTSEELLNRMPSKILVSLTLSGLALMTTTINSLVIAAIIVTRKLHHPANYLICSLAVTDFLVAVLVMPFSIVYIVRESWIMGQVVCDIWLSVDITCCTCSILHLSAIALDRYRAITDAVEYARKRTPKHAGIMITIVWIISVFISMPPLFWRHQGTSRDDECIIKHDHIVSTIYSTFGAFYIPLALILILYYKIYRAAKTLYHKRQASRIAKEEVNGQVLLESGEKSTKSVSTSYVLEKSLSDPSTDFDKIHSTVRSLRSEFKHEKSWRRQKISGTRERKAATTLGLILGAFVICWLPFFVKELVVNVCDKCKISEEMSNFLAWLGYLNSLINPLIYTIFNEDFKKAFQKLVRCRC

[5] = biological target: Beta-2 adrenergic receptor (Rattus norvegicus, UniProt P10608)
[6] = biological target: 5-hydroxytryptamine receptor 1D (Homo sapiens, UniProt P28221)
[7] = biological target: Gamma-aminobutyric acid receptor subunit alpha-1 (Rattus norvegicus, UniProt P62813)
[8] = biological target: D(2) dopamine receptor (Rattus norvegicus, UniProt P61169)
[9] = biological target: T4, 5-hydroxytryptamine receptor 2C (Homo sapiens, UniProt P28335)
T4 sequence (P28335 whole entry): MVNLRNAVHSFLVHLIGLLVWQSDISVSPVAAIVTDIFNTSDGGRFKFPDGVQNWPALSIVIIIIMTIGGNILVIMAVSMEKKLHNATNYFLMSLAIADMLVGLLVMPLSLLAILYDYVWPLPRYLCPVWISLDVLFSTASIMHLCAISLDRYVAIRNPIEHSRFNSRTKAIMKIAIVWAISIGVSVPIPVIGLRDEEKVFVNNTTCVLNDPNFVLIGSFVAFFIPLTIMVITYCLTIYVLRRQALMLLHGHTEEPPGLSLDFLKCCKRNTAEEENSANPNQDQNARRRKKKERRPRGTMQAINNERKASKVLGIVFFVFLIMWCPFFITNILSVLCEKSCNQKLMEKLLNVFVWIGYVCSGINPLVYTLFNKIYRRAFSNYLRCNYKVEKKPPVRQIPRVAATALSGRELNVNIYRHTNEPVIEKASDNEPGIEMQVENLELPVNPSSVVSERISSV

[10] = biological target: 5-hydroxytryptamine receptor 2B (Homo sapiens, UniProt P41595)
[11] = biological target: 5-hydroxytryptamine receptor 2A (Homo sapiens, UniProt P28223)
[12] = biological target: T5, Alpha-2C adrenergic receptor (Rattus norvegicus, UniProt P22086)
T5 sequence (P22086 whole entry): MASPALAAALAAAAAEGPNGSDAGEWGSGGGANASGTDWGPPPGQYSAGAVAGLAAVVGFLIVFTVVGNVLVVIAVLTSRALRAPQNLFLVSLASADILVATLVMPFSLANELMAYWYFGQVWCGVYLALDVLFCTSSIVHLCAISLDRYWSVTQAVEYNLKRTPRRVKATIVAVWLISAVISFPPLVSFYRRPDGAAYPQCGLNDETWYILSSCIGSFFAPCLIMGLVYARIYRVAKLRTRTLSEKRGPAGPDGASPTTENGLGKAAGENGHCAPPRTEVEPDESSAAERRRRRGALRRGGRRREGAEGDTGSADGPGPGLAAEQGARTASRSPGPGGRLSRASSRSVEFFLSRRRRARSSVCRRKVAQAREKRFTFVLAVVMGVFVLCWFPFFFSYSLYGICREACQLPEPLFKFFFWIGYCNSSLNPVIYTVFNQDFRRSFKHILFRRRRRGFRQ

[13] = biological target: D(1A) dopamine receptor (Rattus norvegicus, UniProt P18901)
[14] = biological target: 5-hydroxytryptamine receptor 7 (Homo sapiens, UniProt P34969)
Sequence of 5-hydroxytryptamine receptor 7 (P34969 whole entry): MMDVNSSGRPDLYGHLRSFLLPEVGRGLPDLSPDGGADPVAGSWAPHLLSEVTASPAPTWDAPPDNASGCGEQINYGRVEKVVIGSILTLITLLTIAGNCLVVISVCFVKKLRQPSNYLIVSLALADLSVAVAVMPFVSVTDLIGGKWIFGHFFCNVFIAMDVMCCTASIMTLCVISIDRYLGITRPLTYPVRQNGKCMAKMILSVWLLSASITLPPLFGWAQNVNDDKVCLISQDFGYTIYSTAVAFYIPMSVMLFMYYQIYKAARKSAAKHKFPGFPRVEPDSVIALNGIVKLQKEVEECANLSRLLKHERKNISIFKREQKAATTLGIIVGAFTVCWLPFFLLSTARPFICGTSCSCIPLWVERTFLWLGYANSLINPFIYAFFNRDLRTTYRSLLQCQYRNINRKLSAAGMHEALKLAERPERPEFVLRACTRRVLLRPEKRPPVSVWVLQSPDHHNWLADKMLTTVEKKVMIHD

Sequence of Gamma-aminobutyric acid receptor subunit alpha-1 (P62813 whole entry): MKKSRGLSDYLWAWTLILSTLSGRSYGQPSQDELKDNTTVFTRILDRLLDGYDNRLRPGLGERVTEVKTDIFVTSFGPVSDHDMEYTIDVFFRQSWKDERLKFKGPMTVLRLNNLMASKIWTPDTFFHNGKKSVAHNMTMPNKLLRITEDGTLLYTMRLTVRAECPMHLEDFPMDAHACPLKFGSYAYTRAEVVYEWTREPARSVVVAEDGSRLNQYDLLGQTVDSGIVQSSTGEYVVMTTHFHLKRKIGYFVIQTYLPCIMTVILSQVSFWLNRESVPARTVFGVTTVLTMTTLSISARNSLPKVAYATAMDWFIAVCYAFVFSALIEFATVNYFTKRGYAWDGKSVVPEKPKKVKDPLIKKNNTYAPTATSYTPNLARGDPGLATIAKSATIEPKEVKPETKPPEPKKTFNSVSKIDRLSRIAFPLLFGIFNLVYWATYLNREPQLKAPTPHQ
Sequence of 5-hydroxytryptamine receptor 2B (P41595 whole entry): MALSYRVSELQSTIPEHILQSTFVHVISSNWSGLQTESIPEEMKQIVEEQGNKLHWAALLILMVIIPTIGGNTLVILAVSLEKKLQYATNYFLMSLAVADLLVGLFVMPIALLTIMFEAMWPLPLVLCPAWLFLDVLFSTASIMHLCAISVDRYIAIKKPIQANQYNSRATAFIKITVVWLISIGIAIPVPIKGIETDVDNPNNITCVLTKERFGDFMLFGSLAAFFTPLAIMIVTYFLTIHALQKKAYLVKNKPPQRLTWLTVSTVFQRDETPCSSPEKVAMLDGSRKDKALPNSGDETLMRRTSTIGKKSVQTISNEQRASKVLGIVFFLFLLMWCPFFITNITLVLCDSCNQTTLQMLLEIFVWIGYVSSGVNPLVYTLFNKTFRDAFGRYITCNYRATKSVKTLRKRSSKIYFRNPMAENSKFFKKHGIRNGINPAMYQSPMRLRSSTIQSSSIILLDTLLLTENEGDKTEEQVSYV
Sequence of Beta-2 adrenergic receptor (P10608 whole entry): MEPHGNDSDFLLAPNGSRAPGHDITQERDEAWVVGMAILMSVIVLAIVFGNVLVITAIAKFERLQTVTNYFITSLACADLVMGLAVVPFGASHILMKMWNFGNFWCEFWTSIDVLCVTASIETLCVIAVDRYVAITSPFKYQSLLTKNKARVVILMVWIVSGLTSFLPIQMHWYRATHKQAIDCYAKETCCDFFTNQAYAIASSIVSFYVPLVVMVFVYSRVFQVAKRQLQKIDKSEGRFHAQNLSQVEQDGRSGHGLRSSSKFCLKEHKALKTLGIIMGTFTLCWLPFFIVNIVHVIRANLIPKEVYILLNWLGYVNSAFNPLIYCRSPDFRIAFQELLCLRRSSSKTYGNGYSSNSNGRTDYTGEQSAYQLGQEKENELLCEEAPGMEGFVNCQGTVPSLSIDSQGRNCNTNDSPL
Sequence of 5-hydroxytryptamine receptor 2A (P28223 whole entry): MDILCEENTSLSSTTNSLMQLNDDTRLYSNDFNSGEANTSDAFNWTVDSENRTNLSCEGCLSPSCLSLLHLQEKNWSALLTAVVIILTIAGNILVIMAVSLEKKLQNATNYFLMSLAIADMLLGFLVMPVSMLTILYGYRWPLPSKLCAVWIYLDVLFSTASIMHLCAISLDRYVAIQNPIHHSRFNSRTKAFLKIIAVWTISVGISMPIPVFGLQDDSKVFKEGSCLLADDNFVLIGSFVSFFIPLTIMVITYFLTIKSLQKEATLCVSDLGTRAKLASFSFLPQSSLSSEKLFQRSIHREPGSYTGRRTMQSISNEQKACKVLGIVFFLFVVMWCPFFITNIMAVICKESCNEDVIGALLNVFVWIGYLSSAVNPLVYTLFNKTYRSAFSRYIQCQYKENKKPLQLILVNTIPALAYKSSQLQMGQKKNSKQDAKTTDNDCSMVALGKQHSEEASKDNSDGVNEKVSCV
Sequence of Histamine H1 receptor (P31390 whole entry): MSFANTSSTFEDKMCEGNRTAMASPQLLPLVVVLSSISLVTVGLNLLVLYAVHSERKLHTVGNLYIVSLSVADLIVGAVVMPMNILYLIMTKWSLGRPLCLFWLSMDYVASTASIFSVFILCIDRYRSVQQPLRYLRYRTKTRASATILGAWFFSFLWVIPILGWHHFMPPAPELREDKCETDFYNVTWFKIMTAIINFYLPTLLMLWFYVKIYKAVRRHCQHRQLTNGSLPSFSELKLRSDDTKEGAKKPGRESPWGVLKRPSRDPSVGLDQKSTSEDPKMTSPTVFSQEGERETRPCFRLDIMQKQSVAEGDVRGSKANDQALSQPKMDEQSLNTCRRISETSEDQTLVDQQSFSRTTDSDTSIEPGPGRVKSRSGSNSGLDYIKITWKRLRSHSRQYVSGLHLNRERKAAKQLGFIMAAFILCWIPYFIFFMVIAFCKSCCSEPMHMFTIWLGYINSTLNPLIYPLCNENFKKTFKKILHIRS
Sequence of D(2) dopamine receptor (P61169 whole entry): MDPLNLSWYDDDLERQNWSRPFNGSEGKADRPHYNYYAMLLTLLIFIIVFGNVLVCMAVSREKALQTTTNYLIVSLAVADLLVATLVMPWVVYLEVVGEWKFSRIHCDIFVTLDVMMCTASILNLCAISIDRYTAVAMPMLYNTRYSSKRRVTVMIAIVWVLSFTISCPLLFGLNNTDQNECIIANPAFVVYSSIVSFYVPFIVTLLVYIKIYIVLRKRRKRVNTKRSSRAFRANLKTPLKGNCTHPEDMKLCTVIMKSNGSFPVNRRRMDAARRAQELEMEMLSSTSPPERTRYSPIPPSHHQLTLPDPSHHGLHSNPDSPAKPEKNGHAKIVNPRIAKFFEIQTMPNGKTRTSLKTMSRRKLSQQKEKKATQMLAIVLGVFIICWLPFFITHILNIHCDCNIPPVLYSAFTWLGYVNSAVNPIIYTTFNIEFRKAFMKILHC
Sequence of 5-hydroxytryptamine receptor 1D (P28221 whole entry): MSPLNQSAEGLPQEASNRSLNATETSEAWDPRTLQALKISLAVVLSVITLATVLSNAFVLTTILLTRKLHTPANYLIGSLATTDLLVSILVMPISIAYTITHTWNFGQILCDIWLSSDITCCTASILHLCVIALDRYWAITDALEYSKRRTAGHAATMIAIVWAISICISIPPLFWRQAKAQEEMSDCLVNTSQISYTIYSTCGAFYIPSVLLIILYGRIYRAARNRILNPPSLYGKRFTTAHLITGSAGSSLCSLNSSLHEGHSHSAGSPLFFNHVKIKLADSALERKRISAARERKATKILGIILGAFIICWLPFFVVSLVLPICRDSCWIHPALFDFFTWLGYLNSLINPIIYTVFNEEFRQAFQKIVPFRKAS
Sequence of D(1A) dopamine receptor (P18901 whole entry): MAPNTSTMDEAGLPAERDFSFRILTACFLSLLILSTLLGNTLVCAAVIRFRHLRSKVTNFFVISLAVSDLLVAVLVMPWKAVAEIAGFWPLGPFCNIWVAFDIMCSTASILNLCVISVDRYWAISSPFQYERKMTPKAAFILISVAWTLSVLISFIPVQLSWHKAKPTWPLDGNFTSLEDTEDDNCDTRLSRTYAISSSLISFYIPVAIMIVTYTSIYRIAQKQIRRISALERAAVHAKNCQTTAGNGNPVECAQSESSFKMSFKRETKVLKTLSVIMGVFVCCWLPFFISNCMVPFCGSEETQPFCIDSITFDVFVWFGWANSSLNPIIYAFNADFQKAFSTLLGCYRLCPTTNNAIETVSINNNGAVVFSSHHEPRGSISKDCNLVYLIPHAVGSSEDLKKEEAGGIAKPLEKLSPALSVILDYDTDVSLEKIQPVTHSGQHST

Ki [1]: > 10 µM
Ki [2]: > 10 µM
Ki [3]: 5.06 µM
Ki [4]: 0.006 µM
Ki [5]: > 10 µM
Ki [6]: 0.575 µM
Ki [7]: > 10 µM
Ki [8]: > 10 µM
Ki [9]: 3.5 µM
Ki [10]: 1.69 µM
Ki [11]: 3.94 µM
Ki [12]: 3.69 µM
Ki [13]: > 10 µM
Ki [14]: 4.85 µM
Structure (SMILES): CN(C)C1CCc2[nH]c3ccc(NC(=O)c4ccc(F)cc4)cc3c2C1 (centres undefined) [NSC_5311097]
